The results in this text go back to article PMC3914206.

Holding throughout (assay type): binding
Common to all, as to settings: Compound Concentration 10 µM

The target in assay [1] is T1, panel of 442 kinases (Homo sapiens, UniProt O75460).
T1 construct: purchased KINOMEscan
The text has this:
(§1) We assessed the selectivity of members of this scaffold using the KINOMEscan methodology across a near comprehensive panel of 442 kinases [[18,27]].

In assay [2] the target is T2, panel of 442 kinases (Homo sapiens, UniProt P37023).
T2 construct: purchased KINOMEscan
T2 sequence (P37023 22-503): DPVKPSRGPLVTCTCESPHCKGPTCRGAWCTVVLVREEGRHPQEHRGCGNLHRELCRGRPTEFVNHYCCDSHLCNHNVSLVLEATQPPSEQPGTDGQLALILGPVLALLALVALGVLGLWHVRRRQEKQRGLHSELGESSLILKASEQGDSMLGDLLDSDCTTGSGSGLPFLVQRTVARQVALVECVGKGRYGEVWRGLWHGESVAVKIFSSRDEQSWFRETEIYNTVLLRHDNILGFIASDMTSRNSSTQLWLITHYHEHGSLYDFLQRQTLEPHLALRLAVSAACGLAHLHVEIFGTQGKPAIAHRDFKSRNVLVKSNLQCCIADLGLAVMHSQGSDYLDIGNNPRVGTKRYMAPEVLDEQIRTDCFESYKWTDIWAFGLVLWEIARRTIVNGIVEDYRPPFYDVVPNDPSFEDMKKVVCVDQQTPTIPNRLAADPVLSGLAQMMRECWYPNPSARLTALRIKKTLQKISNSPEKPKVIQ
Excerpt: as §1

Assay [3] deals with T3, panel of 442 kinases (Homo sapiens, UniProt Q6DT37).
T3 construct: purchased KINOMEscan
T3 sequence (Q6DT37 whole entry): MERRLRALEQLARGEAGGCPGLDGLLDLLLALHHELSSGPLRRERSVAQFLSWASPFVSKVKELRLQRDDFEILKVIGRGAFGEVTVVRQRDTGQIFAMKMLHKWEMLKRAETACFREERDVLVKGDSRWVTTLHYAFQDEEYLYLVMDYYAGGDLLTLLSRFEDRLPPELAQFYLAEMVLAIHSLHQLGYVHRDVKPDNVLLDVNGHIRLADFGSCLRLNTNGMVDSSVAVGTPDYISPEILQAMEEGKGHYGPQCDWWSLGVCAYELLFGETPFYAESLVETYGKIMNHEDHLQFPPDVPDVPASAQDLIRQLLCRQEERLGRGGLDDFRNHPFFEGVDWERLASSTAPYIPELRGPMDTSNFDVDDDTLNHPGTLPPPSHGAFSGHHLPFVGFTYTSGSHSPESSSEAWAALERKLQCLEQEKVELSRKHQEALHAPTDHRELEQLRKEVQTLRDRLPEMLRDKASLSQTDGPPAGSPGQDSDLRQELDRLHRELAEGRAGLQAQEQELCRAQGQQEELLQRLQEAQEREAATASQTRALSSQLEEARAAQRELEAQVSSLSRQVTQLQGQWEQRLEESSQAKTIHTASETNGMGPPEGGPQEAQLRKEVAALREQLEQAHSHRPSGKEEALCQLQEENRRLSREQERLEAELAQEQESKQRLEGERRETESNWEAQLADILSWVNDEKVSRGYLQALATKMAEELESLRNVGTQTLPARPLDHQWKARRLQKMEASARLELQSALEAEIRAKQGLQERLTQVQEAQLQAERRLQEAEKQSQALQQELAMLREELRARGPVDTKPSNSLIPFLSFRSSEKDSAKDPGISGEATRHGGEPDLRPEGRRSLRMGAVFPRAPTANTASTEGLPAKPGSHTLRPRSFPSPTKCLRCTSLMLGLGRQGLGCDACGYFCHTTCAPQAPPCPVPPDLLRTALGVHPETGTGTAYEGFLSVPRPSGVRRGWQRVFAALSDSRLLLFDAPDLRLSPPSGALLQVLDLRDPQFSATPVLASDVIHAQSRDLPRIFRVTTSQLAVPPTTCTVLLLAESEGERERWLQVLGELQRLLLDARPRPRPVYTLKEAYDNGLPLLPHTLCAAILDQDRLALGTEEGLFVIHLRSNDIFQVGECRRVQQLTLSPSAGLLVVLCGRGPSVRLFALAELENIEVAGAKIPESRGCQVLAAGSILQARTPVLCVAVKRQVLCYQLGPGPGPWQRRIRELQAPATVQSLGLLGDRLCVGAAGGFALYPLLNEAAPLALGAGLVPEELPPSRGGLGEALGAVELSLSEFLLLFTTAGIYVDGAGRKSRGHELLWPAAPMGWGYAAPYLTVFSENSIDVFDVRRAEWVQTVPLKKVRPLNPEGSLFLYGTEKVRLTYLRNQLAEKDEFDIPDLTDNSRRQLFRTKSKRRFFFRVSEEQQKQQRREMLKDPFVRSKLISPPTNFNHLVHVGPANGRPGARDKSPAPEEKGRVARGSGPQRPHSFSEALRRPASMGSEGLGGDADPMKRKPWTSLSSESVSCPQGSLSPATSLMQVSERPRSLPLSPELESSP
Excerpt: as §1

Assay [4] concerns the target T4, panel of 442 kinases (Homo sapiens, UniProt Q7KZI7).
T4 construct: purchased KINOMEscan
Excerpt: as §1

T4 sequence (Q7KZI7 whole entry): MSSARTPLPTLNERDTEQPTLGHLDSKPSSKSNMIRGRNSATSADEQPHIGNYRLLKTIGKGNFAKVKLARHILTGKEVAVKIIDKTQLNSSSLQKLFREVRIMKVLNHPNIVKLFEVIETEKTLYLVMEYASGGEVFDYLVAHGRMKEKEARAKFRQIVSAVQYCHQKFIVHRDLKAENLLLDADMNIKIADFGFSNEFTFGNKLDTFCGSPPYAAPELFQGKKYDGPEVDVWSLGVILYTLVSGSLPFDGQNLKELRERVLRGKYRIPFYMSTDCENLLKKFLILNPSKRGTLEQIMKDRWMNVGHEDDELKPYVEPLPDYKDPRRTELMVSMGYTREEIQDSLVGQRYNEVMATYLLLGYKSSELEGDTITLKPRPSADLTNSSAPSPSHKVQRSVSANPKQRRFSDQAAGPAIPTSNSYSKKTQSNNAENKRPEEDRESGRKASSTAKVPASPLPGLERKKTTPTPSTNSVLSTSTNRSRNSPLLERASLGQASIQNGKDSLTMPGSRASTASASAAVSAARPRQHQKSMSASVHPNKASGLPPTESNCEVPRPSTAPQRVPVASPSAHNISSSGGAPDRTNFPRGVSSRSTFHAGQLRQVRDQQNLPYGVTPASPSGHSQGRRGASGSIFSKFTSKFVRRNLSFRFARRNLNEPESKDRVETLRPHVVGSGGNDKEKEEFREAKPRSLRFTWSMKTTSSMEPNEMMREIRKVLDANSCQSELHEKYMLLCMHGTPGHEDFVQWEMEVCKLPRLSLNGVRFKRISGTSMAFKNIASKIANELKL
T1 sequence (O75460 19-977): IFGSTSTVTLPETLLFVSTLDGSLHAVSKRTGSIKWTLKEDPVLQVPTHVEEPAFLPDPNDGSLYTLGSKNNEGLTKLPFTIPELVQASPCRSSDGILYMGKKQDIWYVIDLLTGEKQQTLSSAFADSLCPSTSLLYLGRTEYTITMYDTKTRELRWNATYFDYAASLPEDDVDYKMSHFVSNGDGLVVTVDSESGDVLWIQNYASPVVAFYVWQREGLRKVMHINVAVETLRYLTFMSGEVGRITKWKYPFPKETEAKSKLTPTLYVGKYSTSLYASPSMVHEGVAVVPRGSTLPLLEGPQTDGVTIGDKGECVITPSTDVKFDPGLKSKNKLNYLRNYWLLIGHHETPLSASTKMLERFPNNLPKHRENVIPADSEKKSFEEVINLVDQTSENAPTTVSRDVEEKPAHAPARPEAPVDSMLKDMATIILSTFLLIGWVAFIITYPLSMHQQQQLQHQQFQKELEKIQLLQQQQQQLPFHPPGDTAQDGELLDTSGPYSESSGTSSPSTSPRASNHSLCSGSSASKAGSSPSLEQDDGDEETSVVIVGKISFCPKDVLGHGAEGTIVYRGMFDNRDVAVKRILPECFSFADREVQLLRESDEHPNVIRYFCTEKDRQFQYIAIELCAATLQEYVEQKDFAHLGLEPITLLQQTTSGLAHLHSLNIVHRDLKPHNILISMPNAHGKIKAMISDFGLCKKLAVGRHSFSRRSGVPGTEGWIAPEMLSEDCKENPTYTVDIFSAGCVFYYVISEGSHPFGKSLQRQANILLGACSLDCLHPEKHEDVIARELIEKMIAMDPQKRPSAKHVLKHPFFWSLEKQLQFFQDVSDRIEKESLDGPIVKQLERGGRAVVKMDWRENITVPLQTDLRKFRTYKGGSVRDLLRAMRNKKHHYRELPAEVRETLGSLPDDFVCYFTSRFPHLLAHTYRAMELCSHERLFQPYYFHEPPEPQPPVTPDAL

Regarding `COc1cc(C(=O)N2CCC(N3CCN(C)CC3)CC2)ccc1Nc1ncc2c(n1)N(C1CCCC1)c1ccccc1C(=O)N2C` [Compound 25, 11-cyclopentyl-2-((2-methoxy-4-(4-(4-methylpiperazin-1-yl)piperidine-1-carbonyl)phenyl)amino)-5-methyl-5H-benzo[e]pyrimido[5,4-b][1,4]diazepin-6(11H)-one], the “KINOMEscan: ERN1” value on panel of 442 kinases [1] is 96. In addition, at panel of 442 kinases [2], the “KINOMEscan: ACVRL1” value is recorded as 100. Also, the “KINOMEscan: DMPK2” value on panel of 442 kinases [3] is 94. Further, the “KINOMEscan: MARK2” value at panel of 442 kinases [4] worked out at 98.
Regarding `COc1cc(C(=O)N2CCC(N3CCN(C)CC3)CC2)ccc1Nc1ncc2c(n1)N(C)c1ccccc1C(=O)N2C` [15 (LRRK2-IN-1)], the “KINOMEscan: ERN1” value at panel of 442 kinases [1] came out at 59. The “KINOMEscan: ACVRL1” value on panel of 442 kinases [2] amounted to 100. Besides, at panel of 442 kinases [3], the “KINOMEscan: DMPK2” value amounted to 100. Further, the “KINOMEscan: MARK2” value on panel of 442 kinases [4] stood at 100.
Take `CCOc1cc(C(=O)N2CCC(N3CCN(C)CC3)CC2)ccc1Nc1ncc2c(n1)N(C1CCCC1)c1ccccc1C(=O)N2C` [Compound 26]: on panel of 442 kinases [1], the “KINOMEscan: ERN1” value turned out to be 87. The “KINOMEscan: ACVRL1” value at panel of 442 kinases [2] turned out to be 100. Also, the “KINOMEscan: DMPK2” value on panel of 442 kinases [3] is 100. Besides, on panel of 442 kinases [4], the “KINOMEscan: MARK2” value amounted to 96.
